Assay results from patent publication US5478848A (priority 1994, dated 1995).
Read-outs that look alike come from different tables or passages of the source.

Assays:
[1] = cited from earlier work
[2] = Inhibition of arthritis in the adjuvant-induced arthritis model in the Lewis rat; assay type: in vivo; details: for ED50: Rattus norvegicus, ip, 384 h; for Potency compared with indomethacin: i.p., adjuvant arthritis model
Excerpt: One similarity is the sensitivity to certain therapeutic treatments known to be active in humans. Also, therapeutic doses in humans are similar to therapeutic doses in the adjuvant arthritis model. Examples include NSAIDs, steroids, methotrexate, immunosuppressive drugs, such as cyclosporin, and cytotoxic drugs, such as cyclophosphamide and allopurinol. Jeurissen et. al., Arthritis and Rheumatism 34, 961-972 (1991); Yocum et. al., Annals of Internal Medicine 109, 863-869 (1988); Rau, et. al., Arthritis and Rheumatism 34, 1236-1244 (1991); Otterness and Bliven, supra; Ward, Am. J. Med. Medicine. pp. 3-9 (Jul. 13, 1984).
Lewis rats were given a 0.1 ml injection of adjuvant (1 mg/animal) into the base of the tail on day 0. Swelling of the feet and ankles was first noted on days 10-12. Maximal swelling was observed on days 16-20. The cell infiltrate of the chronic inflammatory responses is predominantly mononuclear (indicating the presence of cell-mediated immunity). Animals were observed daily, and ankle diameter was measured in millimeters on days 12 and 16 using a hand-held dial micrometer. The degree of swelling was assessed by calculating the mean difference between day 16 and day 0 ankle diameter. The results are expressed as the percent inhibition of the increase in ankle diameter on day 16. At this point the animals were sacrificed and tissues were taken for histologic evaluation.
Animals were administered test drugs, suspended in 5% polyethylene glycol and 0.5% Tween-80 in phosphate buffered saline (p.o. or i.p.) once each day from day 1 to day 16.

[3] = test system: L-type Ca2+ channels; details: fibroblasts, macrophage/monocyte-like cells, Kuppfer cells; cited from earlier work
[4] = cited from earlier work; remark: listed apart in the source
[5] = Inhibition of arthritis in the passive transfer model; assay type: in vivo, Lewis rat
Description: Another arthritis model often used is the passive transfer model. In the passive transfer model of adjuvant arthritis, spleen cells are harvested from animals 12-14 days after the animals have been injected with adjuvant, cultured 24 hours in vitro with the T-cell mitogen, concanavaLin A, and injected into naive rats. Within 14-20 days, arthritis develops in the paws. […] Otterness and Bliven, supra.
Nimodipine was also tested for its ability to inhibit arthritis in the passive-transfer model. Otterness and Bliven, supra.
Spleens were harvested from naive rats or from rats 9-12 days after sensitization with complete Freund's adjuvant. Single cell suspensions from spleen were prepared and cells were cultured for 24 hours with the T cell mitogen, concanavalin A. Spleen cells were harvested and injected, i.v., into naive animals. Ankle diameters were determined 14-18 days after injection of spleen cells from naive or sensitized animals into naive animals. Animals were administered nimodipine at 10 mg/kg/day, i.p., suspended in 5% polyethylene glycol and 0.5% Tween-80 in phosphate-buffered saline.

CC1=C(CC(=O)O)c2cc(F)ccc2/C1=C\c1ccc([S+](C)[O-])cc1 (stereo not shown) [sulindac]
Potency relative to indomethacin ([1]; human, in vivo): only half as potent as indomethacin
Toxic side effects ([1]; human, in vivo): has toxic side effects of its own

COC(=O)C1=C(C)NC(C)=C(C(=O)OCC(C)C)C1c1ccccc1[N+](=O)[O-] (stereo not shown) [nisoldipine]
ED50 ([2]; i.p. dosage, once each day from day 1 to day 16, increase in ankle diameter on day 16, read-out: ED50): < 1 mg/kg
Potency compared with indomethacin [2]: comparable in potency to indomethacin

COC(=O)C1=C(C)NC(C)=C([N+](=O)[O-])C1c1ccccc1C(F)(F)F (stereo not shown) [Bay K 8644]
Entry of Ca2+ into non-excitable cells [3]: stimulated

COc1ccc2c(c1)c(CC(=O)O)c(C)n2C(=O)c1ccc(Cl)cc1 [indomethacin]
ED50 [2]: 3 ± 1 mg/kg
Patients experiencing untoward side effects ([1]; human, in vivo): 35-50%
Patients forced to discontinue use ([1]; human, in vivo): about 20%
Ulceration of the upper gastrointestinal tract / gastrointestinal bleeding ([1]; therapeutic doses used in rheumatoid arthritis): ulceration of the upper gastrointestinal tract leading to gastrointestinal bleeding is common

COCCOC(=O)C1=C(C)NC(C)=C(C(=O)OC(C)C)C1c1cccc([N+](=O)[O-])c1 (stereo not shown) [nimodipine]
ED50 [2]: 4 mg/kg
Potency compared with indomethacin [2]: comparable in potency to indomethacin
Gastrointestinal irritation ([4]; acute, sub-acute and chronic exposure, even at supra-therapeutic concentrations, NDA applications): have not revealed any gastrointestinal irritation
Gastrointestinal toxicity ([4]; expected therapeutic dose in rheumatoid arthritis, prolonged periods of treatment): no gastrointestinal toxicity has been observed
Inhibition of arthritis in the passive transfer model ([5]; 10 mg antagonist/kg body weight/day): completely inhibited arthritis
Increase in paw diameter ([5]; sensitized T cells, 10 mg/kg/day, i.p., 14-18 days after injection of spleen cells): 0.2 ± 0.05 mm

COc1ccc(CCN(C)CCCC(C#N)(c2ccc(OC)c(OC)c2)C(C)C)cc1OC (stereo not shown) [verapamil]
ED50 [2]: 10 mg/kg

CN(Cc1cnc2nc(N)nc(N)c2n1)c1ccc(C(=O)N[C@@H](CCC(=O)O)C(=O)O)cc1 [methotrexate]
Progressive dose-related hepatic changes ([1]; extended periods of treatment, correlates with ethanol ingestion): progressive dose-related hepatic changes
Hepatic effects in patients treated for rheumatoid arthritis ([1]; human, in vivo): Hepatic fibrosis and cirrhosis have been reported

COC(=O)C1=C(C)NC(C)=C(C(=O)OC)C1c1ccccc1[N+](=O)[O-] [nifedipine]
ED50 [2]: 11 mg/kg
